Experimental data: patent US20250092065A1, “2-(INDAZOL-5-YL)-6-(PIPERIDIN-4-YL)-1,7-NAPHTHYRIDINE DERIVATIVES AND RELATED COMPOUNDS AS MODULATORS FOR SPLICING NUCLEIC ACIDS AND FOR THE TREATMENT OF PROLIFERATIVE DISEASES” (REMIX THERAPEUTICS INC., priority 2022, published 2025)
pIC50: −log10 of the molar value. Counter-ions that a name gives are not always drawn. Like-named read-outs stand apart in the source and are kept apart here.

Tests used:
[1] = tested on: MYB mRNA; experiment: RT-qPCR splicing assay, MYB mRNA canonical (CJ) and alternative (AJ) junction; format: cell-based, human; settings: Homo sapiens; for AC50: MYB alternative junction mRNA, read-out: MYB AJ (increase in AJ mRNA, AC50)
Summary of the method: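 A673 or K562 cells treated 24 h at 37 °C with 11-point 3-fold dilutions (top final 10 uM, DMSO ≤0.25%). Lysates analysed by one-step RT-qPCR for canonical (CJ) and alternative-exon (AJ) junctions, normalized to GAPDH, GUSB or PPIA. ΔΔCt vs DMSO, RQ = 2^(−ΔΔCt), expressed as percentage response.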

[2] = tested on: Target C; experiment: RT-qPCR canonical junction panel assay, Target C mRNA; format: cell-based; settings: Table 4, read-out: Target C IC50 (decrease in CJ mRNA levels)
Summary of the method: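 A673 or K562 cells treated with compound; CJ mRNA quantified by junction-spanning RT-qPCR probe after cDNA synthesis, normalised to GAPDH, GUSB or PPIA and DMSO (2^−ΔΔCt), scaled to set ΔCt assay window; IC50 from 4-parameter fit of CJ decrease.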

[3] = MYB canonical junction mRNA, RT-qPCR, read-out: MYB CJ (decrease in CJ mRNA levels, IC50)
[4] = canonical junction qPCR panel, Table 4, read-out: MYB IC50 (decrease in CJ mRNA levels)

Row | Compound | AC50 ([1]; RT-qPCR) | pIC50 [1, 3] | pIC50 [1, 4] | pIC50 [2]
1 | CNC(=O)c1nc(-c2cc3cn(C)nc3c(F)c2O)nc2ccc(N3CCC(N4CCC4)CC3)cc12 [Compound 722, 6-[4-(azetidin-1-yl)piperidin-1-yl]-2-(7-fluoro-6-hydroxy-2-methylindazol-5-yl)-N-methylquinazoline-4-carboxamide] | < 100 nM | > 7.00 | > 7.00 | 6.00 to 7.00
2 | Cc1cc(N2C[C@@H](C)N[C@@H](C)C2)cc2c(Cl)cc(-c3cc4cn(C)nc4c(F)c3O)nc12 [Compound 723, 5-{4-chloro-6-[(3R,5S)-3,5-dimethylpiperazin-1-yl]-8-methylquinolin-2-yl}-7-fluoro-2-methylindazol-6-ol] | < 100 nM | > 7.00 | > 7.00 | 6.00 to 7.00
3 | CNC(=O)c1nc(-c2cc3cn(C)nc3c(F)c2O)nc2ccc(N3CCNC4(CC4)C3)cc12 [Compound 728, 6-{4,7-diazaspiro[2.5]octan-7-yl}-2-(7-fluoro-6-hydroxy-2-methylindazol-5-yl)-N-methylquinazoline-4-carboxamide] | < 100 nM | > 7.00 | > 7.00 | 5.00 to 6.00
4 | CNC(=O)c1nc(-c2cc3cn(C)nc3c(F)c2O)nc2ccc(N3CC[C@@H](NC)C3)cc12 [Compound 729, 2-(7-fluoro-6-hydroxy-2-methylindazol-5-yl)-N-methyl-6-[(3R)-3-(methylamino)pyrrolidin-1-yl]quinazoline-4-carboxamide] | < 100 nM | > 7.00 | > 7.00 | > 7.00
5 | C[C@@H]1CN(c2ccc3nc(-c4cc5cn(C)nc5c(F)c4O)nc(-c4nccs4)c3c2)C[C@H](C)N1 [Compound 732, 5-{6-[(3R,5S)-3,5-dimethylpiperazin-1-yl]-4-(1,3-thiazol-2-yl)quinazolin-2-yl}-7-fluoro-2-methylindazol-6-ol] | > 10000 nM | 5.00 to 6.00 | 5.00 to 6.00 | < 5.00
6 | C[C@@H]1CN(c2ccc3nc(-c4cc5cn(C)nc5c(F)c4O)nc(C(=O)NCCO)c3c2)C[C@H](C)N1 [Compound 737, 6-[(3R,5S)-3,5-dimethylpiperazin-1-yl]-2-(7-fluoro-6-hydroxy-2-methylindazol-5-yl)-N-(2-hydroxyethyl)quinazoline-4-carboxamide] | 100 to 1000 nM | 6.00 to 7.00 | 6.00 to 7.00 | 5.00 to 6.00
7 | CNC(=O)c1nc(-c2cc3cn(C)nc3cc2O)nc2ccc(N3CCC(N(C)C)CC3)cc12 [Compound 742, 6-[4-(dimethylamino)piperidin-1-yl]-2-(6-hydroxy-2-methylindazol-5-yl)-N-methylquinazoline-4-carboxamide] | 100 to 1000 nM | 6.00 to 7.00 | 6.00 to 7.00 | < 5.00
8 | C[C@@H]1CN(c2ccc3nc(-c4cc5cn(C)nc5c(F)c4O)ncc3c2)C[C@H](C)N1 [Compound 743, 5-{6-[(3R,5S)-3,5-dimethylpiperazin-1-yl]quinazolin-2-yl}-7-fluoro-2-methylindazol-6-ol] | > 10000 nM | 5.00 to 6.00 | 5.00 to 6.00 | 5.00 to 6.00
9 | C[C@H]1CN(c2ccc3nc(-c4cc5cn(C)nc5c(F)c4O)ncc3c2)C[C@H](C)N1 [Compound 744, 5-{6-[(3S,5S)-3,5-dimethylpiperazin-1-yl]quinazolin-2-yl}-7-fluoro-2-methylindazol-6-ol] | < 100 nM | > 7.00 | > 7.00 | 5.00 to 6.00
10 | C[C@@H]1CN(c2ccc3nc(-c4cc5cn(C)nc5c(F)c4O)ncc3c2)C[C@@H](C)N1 [Compound 745, 5-{6-[(3R,5R)-3,5-dimethylpiperazin-1-yl]quinazolin-2-yl}-7-fluoro-2-methylindazol-6-ol] | < 100 nM | > 7.00 | > 7.00 | 5.00 to 6.00
11 | CN[C@@H]1CCN(c2cc3c(Cl)cc(-c4cc5cn(C)nc5c(C)c4O)nc3cc2C)C1 [Compound 748, 5-{4-chloro-7-methyl-6-[(3R)-3-(methylamino)pyrrolidin-1-yl]quinolin-2-yl}-2,7-dimethylindazol-6-ol] | 1000 to 10000 nM | 6.00 to 7.00 | 6.00 to 7.00 | < 5.00
12 | CN[C@H]1CCN(c2cc3c(Cl)cc(-c4cc5cn(C)nc5c(C)c4O)nc3cc2C)C1 [Compound 749, 5-{4-chloro-7-methyl-6-[(3S)-3-(methylamino)pyrrolidin-1-yl]quinolin-2-yl}-2,7-dimethylindazol-6-ol] | 100 to 1000 nM | 6.00 to 7.00 | 6.00 to 7.00 | 5.00 to 6.00
13 | Cn1cc2cc(-c3ncc4cc(N5CCC(N6CCC6)CC5)ccc4n3)c(O)c(F)c2n1 [Compound 750, 5-{6-[4-(azetidin-1-yl)piperidin-1-yl]quinazolin-2-yl}-7-fluoro-2-methylindazol-6-ol] | 100 to 1000 nM | > 7.00 | > 7.00 | 6.00 to 7.00
14 | C[C@@H]1CN(c2ccc3nc(-c4cc5cn(C)nc5cc4O)ncc3c2)C[C@H](C)N1 [Compound 751, 5-{6-[(3R,5S)-3,5-dimethylpiperazin-1-yl]quinazolin-2-yl}-2-methylindazol-6-ol hydrochloride] | 100 to 1000 nM | 6.00 to 7.00 | 6.00 to 7.00 | < 5.00
15 | C[C@H]1CN(c2ccc3nc(-c4cc5cn(C)nc5cc4O)ncc3c2)C[C@H](C)N1 [Compound 752, 5-{6-[(3S,5S)-3,5-dimethylpiperazin-1-yl]quinazolin-2-yl}-2-methylindazol-6-ol] | < 100 nM | > 7.00 | > 7.00 | < 5.00
16 | C[C@@H]1CN(c2ccc3nc(-c4cc5cn(C)nc5cc4O)ncc3c2)C[C@@H](C)N1 [Compound 753, 5-{6-[(3R,5R)-3,5-dimethylpiperazin-1-yl]quinazolin-2-yl}-2-methylindazol-6-ol] | 100 to 1000 nM | 6.00 to 7.00 | 6.00 to 7.00 | < 5.00
17 | CCN(CC)C1CCN(c2ccc3nc(-c4cc5cn(C)nc5c(F)c4O)ncc3c2)CC1 [Compound 756, 5-{6-[4-(diethylamino)piperidin-1-yl]quinazolin-2-yl}-7-fluoro-2-methylindazol-6-ol] | 100 to 1000 nM | 6.00 to 7.00 | 6.00 to 7.00 | 6.00 to 7.00
